Assay: xn = mol fraction of the nth substance listed

CCCCCCCCCCCC(=O)OCC + CCCO
viscosity [mPa·s], 101.33 kPa
Conditions	x2 = 0.1001	x2 = 0.2003	x2 = 0.3	x2 = 0.3999	x2 = 0.5	x2 = 0.5999	x2 = 0.7	x2 = 0.8	x2 = 0.9
293.15 K	3.214	3.059	2.924	2.798	2.671	2.547	2.426	2.307	2.215
298.15 K	2.875	2.742	2.62	2.504	2.398	2.286	2.175	2.078	1.997
303.15 K	2.579	2.464	2.353	2.252	2.15	2.052	1.956	1.869	1.786
308.15 K	2.32	2.218	2.12	2.025	1.936	1.845	1.756	1.674	1.6
313.15 K	2.108	2.013	1.919	1.833	1.749	1.669	1.59	1.513	1.44
318.15 K	1.935	1.849	1.767	1.688	1.609	1.531	1.454	1.381	1.315
323.15 K	1.748	1.67	1.595	1.522	1.451	1.382	1.315	1.251	1.188

Clc1ccc(Cl)c(Cl)c1 + CCNc1ccccc1
viscosity [mPa·s], 101 kPa
Conditions	303.15 K	308.15 K
x2 = 0.0875	1.784	1.618
x2 = 0.1559	1.783	1.615
x2 = 0.2286	1.782	1.612
x2 = 0.2938	1.781	1.609
x2 = 0.3656	1.779	1.607
x2 = 0.4225	1.777	1.604
x2 = 0.4952	1.775	1.6
x2 = 0.5659	1.772	1.595
x2 = 0.6359	1.768	1.589
x2 = 0.7025	1.763	1.584
x2 = 0.7812	1.758	1.577
x2 = 0.8525	1.752	1.571
x2 = 0.9199	1.748	1.565

CCCC(C)CO (stereo not drawn) + CCO
298.15 K, 101.33 kPa
Conditions	viscosity [mPa·s]
x2 = 0.1048	4.615
x2 = 0.2134	3.996
x2 = 0.3147	3.481
x2 = 0.4122	3.014
x2 = 0.5011	2.664
x2 = 0.6144	2.253
x2 = 0.7136	1.884
x2 = 0.7984	1.623
x2 = 0.9049	1.303

CC[n+]1ccn(C)c1.NCC(=O)[O-] + CCn1cc[n+](C)c1.N#C[C-](C#N)C#N
Conditions	viscosity [mPa·s]
313.15 K, 101 kPa, x2 = 0.5001	22.25

CCCC(C)CO (stereo not drawn) + CO
298.15 K, 101.33 kPa
Conditions	viscosity [mPa·s]
x2 = 0.0849	4.645
x2 = 0.2146	3.757
x2 = 0.3193	3.053
x2 = 0.4183	2.526
x2 = 0.5192	2.018
x2 = 0.6077	1.676
x2 = 0.7069	1.296
x2 = 0.8045	1.018
x2 = 0.9002	0.7552

Reference: the CheMixHub viscosity set
